Measured values taken from paper PMC5915154, “Aloe-emodin as drug candidate for cancer therapy” (Oncotarget, 2018).

Assays:
CCRF-CEM cells [1] = assay: Cell cycle analysis (PI, flow cytometry); type: cell-based, human; details: 4-fold IC50, 24 h
Protocol: The cells were collected, washed in PBS and fixed with ice-cold 96% ethanol. After washing the cells with PBS again, the cells were dissolved in PBS and stained with propidium iodide (PI, Sigma-Aldrich) at a final concentration of 50 μg/mL for 15 min in the dark. Cell cycle analyses were performed using a BD Accuri™ C6 Flow cytometer (Becton-Dickinson, Heidelberg, Germany) at 488 nm excitation wavelength, and emission was measured by a 610/20 nm band pass filter. All experiments were performed at least in triplicates. The protocol has been recently reported by us.

CCRF-CEM cells [2] = assay: Mitochondrial membrane potential (JC-1, flow cytometry); type: cell-based, human; details: CCRF-CEM, 2- and 4-fold IC50, 24 and 48 h
From the text: The JC-1 Mitochondrial Membrane Potential Assay Kit (Cayman Chemical, Ann Arbor, MI, USA) was applied for the detection of MMP by flow cytometry according to the manufacturer’s instructions. The cationic dye, 5, 5’, 6, 6’- tetrachloro- 1, 1’, 3, 3’- tetraethylbenzimidazolylcarbocyanine iodide (JC-1) enters the mitochondria and changes its fluorescent properties based on the aggregation of the probe. In healthy cells having high MMP, JC-1 forms complexes known as J-aggregates with intense red fluorescence. On the other hand, in cells with low MMP, JC-1 remains in its monomeric form showing green fluorescence. […] A LSR-Fortessa FACS analyzer (Becton–Dickinson) was used to detect the J-aggregate form of JC-1 with an excitation wavelength of 535 ± 20 nm and an emission wavelength of 590 ± 20 nm as well as the monomeric form of JC-1 at excitation and emission wavelengths of 485 and 535 nm, respectively. The results were analyzed by the FlowJo software (Celeza, Olten, Switzerland). 2×10^4 cells were counted for each experiment which were repeated in triplicate.

[3] = tested on: multidrug-resistant P-glycoprotein-overexpressing CEM/ADR5000 leukemia cells; assay: Resazurin reduction assay, CEM/ADR5000; type: cell-based, human; details: Homo sapiens; CEM/ADR5000, resazurin assay, 72 h
From the text: (§1) The cell lines used in the present work, their origins and maintenance conditions were previously reported. In brief, drug-sensitive CCRF-CEM and multidrug resistant P-glycoprotein-over-expressing CEM/ADR5000 leukemia cells, MDA-MB-231-pcDNA3 breast cancer cells and their transfectant subline MDA-MB-231-BCRP clone 23, HCT116 (p53^+/+) colon cancer cells and its knockout clone HCT116 (p53^-/-), U87.MG glioblastoma multiform cells and their transfectant subline U87.MGΔEGFR as well as HEK293 human embryonic kidney cells transfected with or without a cDNA for ABCB5 were used. The human peripheral mononuclear cells (PMNC) were isolated from fresh blood samples of a healthy donor by using Histopaque® (Sigma-Aldrich, Taufkirchen, Germany).
(§2) Resazurin reduction assay was conducted to test the cytotoxicity of the compounds. This assay is based on the reduction of resazurin to resorufin by viable cells. […] Briefly, aliquots of 0.5×10^4 adherent cells which were allowed to attach overnight and 1×10^4 suspension cells per well were seeded in 96-well-plates with or without the addition of varying concentrations of the test substance to get a total volume of 200 μL/well. After 72 h incubation and addition of resazurin (Sigma-Aldrich) for 4 h, staining was measured by an Infinite M2000 ProTM plate reader (Tecan, Germany) using an excitation wavelength of 544 nm and an emission wavelength of 590 nm. Each assay was independently performed for at least three times, with six parallel replicates each. The protocol has been recently reported. Fifty percent inhibition concentrations (IC50) represent the drug concentrations required to inhibit 50% of cell proliferation, which were fitted with nonlinear regression using GraphPad® Prism7.

drug-resistant sublines = assay: Resazurin reduction assay, range over drug-resistant and/or transfected sublines; type: cell-based; details: Homo sapiens
From the text: as §1
as §2, with “Each assay was independently performed for at least three times, with six parallel replicates each. The protocol has been recently reported. Fifty percent inhibition concentrations (IC50) represent the drug concentrations required to inhibit 50% of cell proliferation, which were fitted with nonlinear regression using GraphPad® Prism7.” left out

U87.MGΔEGFR cells = assay: Resazurin reduction assay, U87.MGΔEGFR; type: cell-based; details: Homo sapiens, 72 h
From the text: as §1
as §2, with “Each assay was independently performed for at least three times, with six parallel replicates each. The protocol has been recently reported. Fifty percent inhibition concentrations (IC50) represent the drug concentrations required to inhibit 50% of cell proliferation, which were fitted with nonlinear regression using GraphPad® Prism7.” left out

[4] = tested on: mRNA expression (DUSP6, HHEX, MCMDC2, CRCP) in CCRF-CEM cells; assay: qPCR validation of microarray data; type: cell-based, human; details: CCRF-CEM treated vs untreated, normalized to GAPDH
Protocol: Primer sequences of HHEX, MCMDC2 and CRCP were designed using NCBI and GenScript Real Time PCR Primer Design (https://www.genscript.com/ssl-bin/app/primer) websites. DUSP6, HHEX, MCMDC2 and CRCP primers were synthesized by Eurofins MWG Operon (Ebersberg, Germany) and their sequence specificities were checked by NCBI Primer-Blast (http://www.ncbi.nlm.nih.gov/tools/primer-blast). The reaction properties of primers were calculated by Eurofins genomics (https://www.eurofinsgenomics.eu/en/dna-rna-oligonucleotides/oligo-design-more/oligo-property-scan.aspx). The primer sequences were as follows: DUSP6, forward (5′–3′): […], reverse (5′–3′): […] [75]; HHEX, forward: […], reverse: […]; MCMDC2, forward: […], reverse: […]; CRCP, forward: […], reverse: […]. Total RNA was isolated by InviTrap Spin Universal RNA Mini kit (Stratec Molecular) according to the manufacturer’s instruction. One microgram RNA was converted to cDNA using RevertAid H Minus First Strand cDNA Synthesis Kit (Thermo Scientific). The mRNA levels were analyzed by using of 5×Hot Start Tag EvaGreen® qPCR Mix (no ROX) (Axon Labortechnik, Kaiserslautern, Germany) and CFX384™ Real-Time PCR Detection System (Bio-Rad, Munich, Germany). RT-PCR was performed with an initial denaturation at 95°C for 10 second followed by 40 cycles including strand separation at 95°C for 15 s, annealing at 62°C for 30 s and extension at […] for 1 min. The GAPDH, HPRT1 and RLP13 genes were used as housekeeping genes. The expression data were normalized using Bestkeeper software. […] Therefore, GAPDH was used for normalization. Forward and reverse primer sequences of GAPDH were […] for forward and […] for reverse, respectively.
Furthermore, forward and reverse primer sequences of HPRT1 were […] for forward and […] for reverse as well as of RLP13A were TATGCTGCCCCACAAAACC for forward and […] for reverse, respectively. • The quantification method was done as follow: • ΔCt = Ct gene test – Ct endogenous control. • ΔΔCt = ΔCt sample1 – ΔCt calibrator. • RQ = Relative quantification = 2-ΔΔCt.
The RQ is the fold-change compared to the calibrator (untreated sample, time zero, etc.). The calibrator has an RQ value of 1. All samples were compared to the calibrator.

IC50 [3]: 12.8 µM
IC50 (U87.MGΔEGFR cells): 33.8 µM
SMILES: O=C1c2cccc(O)c2C(=O)c2c(O)cc(CO)cc21 [Aloe-emodin]
cell cycle arrest (CCRF-CEM cells [1]): clear arrest in the S-phase
MMP depolarization (JC-1 fluorescence) (CCRF-CEM cells [2]): shift from red to green fluorescence
IC50 (drug-resistant sublines): 11.2 to 33.8 µM
qPCR data (FC), CRCP [4]: -2.63 FC
qPCR data (FC), DUSP6 [4]: 1.40 FC
qPCR data (FC), HHEX [4]: 2.23 FC
qPCR data (FC), MCMDC2 [4]: -2.47 FC
